From US20080063628A1, “METHODS TO PROMOTE CELL DIFFERENTIATION” (priority 2006, published 2008)

Columns and labels:
Assay in all cases: Single trichostatin A dose, 144 h follow-up, gene expression by RT-PCR (Example 6)
Assay type in all cases: cell-based, human
[1] = system: second amniotic fluid-derived cell line; conditions: 500 nM once at 0 h
Description: (§1) Several cell lines obtained from different amniotic fluid specimens (see Example 14) and pancreas donors (see Example 13) were tested with similar results. Two lines at similar passage number but derived from different amniotic fluid specimens are shown in Table VI-A and Table VI-B for this example. One of these cell lines was also used in examples 2 and 4 above. In addition, this example also contains comparison data in Table VI-C and Table VI-D for a single pancreatic-derived stromal line grown to early and late passage number.
(§2) Amniotic fluid derived cells or pancreatic-derived stromal cells were seeded into 24-well tissue culture plates at a density of 5000/cm^2 and cultured in AMNIOMAX (Invitrogen) or DMEM with 10% FBS, respectively, under standard cell culture conditions until confluent. After the cells reached confluency, amniotic fluid derived cells were treated once at time 0 hours with 500 nM trichostatin A. Pancreas-derived stromal cells were treated once at time 0 hours with 1.25 μM trichostatin A. Samples for RT-PCR were taken daily from zero to six days at the times indicated in Table VI.
(§3) RNA samples were obtained from the treated cultures up to 144 hours after the initial addition of trichostatin A or DMSO. Culture media was removed, the cells were washed with PBS, and RLT lysis buffer containing β-mercaptoethanol (Qiagen) was added. During culture, the medium was not changed nor was freshly prepared trichostatin A added. RNA was purified using the RNeasy Mini Kit (Qiagen), and RNA quantity and quality was determined using a spectrophotometer. cDNA was made using the iScript cDNA synthesis kit (BioRad).
(§4) Samples of 20 ng cDNA were used in each reaction to determine the expression levels of the following genes in amniotic fluid-derived cells: Gata1, HNF-3 beta, Pdx-1, insulin, and Sox17. Similarly, samples of 20 ng cDNA were used in each reaction to determine the expression level of the following genes in pancreatic-derived stromal cells: glucagon, HNF-3 beta, insulin and Pdx-1. Real-Time PCR was performed on the Applied Biosystems 7500, and data was analyzed using the accompanying software according to the methods described in Example 15.
(§5) Real-time PCR amplifcation and quantitative analysis. Unless otherwise stated, all reagents were purchased from Applied Biosystems. Real-time PCR reactions were performed using the ABI PRISM™ 7500 Sequence Detection System. TAQMAN™ FAST UNIVERSAL PCR MASTER MIX™ (ABI, CA) was used with 20 ng of reverse transcribed RNA in a total reaction volume of 20 μl. Each cDNA sample was run in duplicate to allow correction of pipetting errors. Primers and FAM-labeled TAQMAN™ probes were used at concentrations of 200 nM. The level of expression for each target gene was normalized using the pre-developed Applied Biosystem's human glyceraldehyde-3-phosphate dehydrogenase (GAPDH) endogenous control kit. Primers and probes were designed using either ABI PRISM PRIMER EXPRESS™ software or a pre-developed ABI gene analysis kit. For each gene, either one of the primers or the probe were designed to be exon-boundary spanning. This eliminated the possibility of the primers/probe binding to any genomic DNA present. The primer and probe sets are listed as follows: Pdx-1 (Hs00426216), Insulin (Hs00355773), glucagon (Hs00174967), and FoxA2 (HNF 3-beta) (Hs00232764). The remaining primers were designed using the PRIMERS program (ABI, CA). After an initial 95° C. incubation for 20 sec, samples were cycled 40 times in two stages: a denaturation step at 95° C. for 3 sec, followed by an annealing/extension step at 60° C. for 30 sec.
(§6) For each primer/probe set, a cycle time value was determined as the cycle number at which the fluorescence intensity of the PCR reaction reached a specific value in the middle of the exponential region of amplification. An increase in expression of a gene corresponded to a decrease in the number of cycles required for the fluorescence intensity to reach this value.

[2] = system: amniotic fluid-derived cell line; conditions: 500 nM once at 0 h
Description: as §1, §2, §3, §4, §5, §6

[3] = system: late passage (P14) pancreatic-derived stromal cell line; conditions: 1.25 μM once at 0 h
Description: as §1, §2, §3, §4, §5, §6

Compound: CC(/C=C/C(=O)NO)=C\[C@@H](C)C(=O)c1ccc(N(C)C)cc1 [trichostatin A]
- Gata1 gene expression ([1]; 24 hrs): nd (not detectable at >40 cycles by RT-PCR)
- HNF (HNF-3 beta) gene expression ([1]; 24 hrs): +++ (detectable at less than 35 cycles by RT-PCR with SE less than 0.9)
- Insulin gene expression ([1]; 24 hrs): nd (not detectable at >40 cycles by RT-PCR)
- Pdx-1 gene expression ([1]; 24 hrs): + (detectable between 35 and 40 cycles by RT-PCR)
- sox17 gene expression ([1]; 24 hrs): +++ (detectable at less than 35 cycles by RT-PCR with SE less than 0.9)
- Gata1 gene expression ([1]; 48 hrs): nd (not detectable at >40 cycles by RT-PCR)
- HNF (HNF-3 beta) gene expression ([1]; 48 hrs): +++ (detectable at less than 35 cycles by RT-PCR with SE less than 0.9)
- Insulin gene expression ([1]; 48 hrs): nd (not detectable at >40 cycles by RT-PCR)
- Pdx-1 gene expression ([1]; 48 hrs): nd (not detectable at >40 cycles by RT-PCR)
- sox17 gene expression ([1]; 48 hrs): +++ (detectable at less than 35 cycles by RT-PCR with SE less than 0.9)
- Gata1 gene expression ([1]; 72 hrs): nd (not detectable at >40 cycles by RT-PCR)
- HNF (HNF-3 beta) gene expression ([1]; 72 hrs): + (detectable between 35 and 40 cycles by RT-PCR)
- Insulin gene expression ([1]; 72 hrs): + (detectable between 35 and 40 cycles by RT-PCR)
- Pdx-1 gene expression ([1]; 72 hrs): nd (not detectable at >40 cycles by RT-PCR)
- sox17 gene expression ([1]; 72 hrs): +++ (detectable at less than 35 cycles by RT-PCR with SE less than 0.9)
- Gata1 gene expression ([1]; 96 hrs): nd (not detectable at >40 cycles by RT-PCR)
- HNF (HNF-3 beta) gene expression ([1]; 96 hrs): + (detectable between 35 and 40 cycles by RT-PCR)
- Insulin gene expression ([1]; 96 hrs): ++ (detectable at less than 35 cycles by RT-PCR with SE greater than 0.9)
- Pdx-1 gene expression ([1]; 96 hrs): nd (not detectable at >40 cycles by RT-PCR)
- sox17 gene expression ([1]; 96 hrs): +++ (detectable at less than 35 cycles by RT-PCR with SE less than 0.9)
- Gata1 gene expression ([1]; 120 hrs): nd (not detectable at >40 cycles by RT-PCR)
- HNF (HNF-3 beta) gene expression ([1]; 120 hrs): + (detectable between 35 and 40 cycles by RT-PCR)
- Insulin gene expression ([1]; 120 hrs): ++ (detectable at less than 35 cycles by RT-PCR with SE greater than 0.9)
- Pdx-1 gene expression ([1]; 120 hrs): nd (not detectable at >40 cycles by RT-PCR)
- sox17 gene expression ([1]; 120 hrs): +++ (detectable at less than 35 cycles by RT-PCR with SE less than 0.9)
- Gata1 gene expression ([1]; 144 hrs): nd (not detectable at >40 cycles by RT-PCR)
- HNF (HNF-3 beta) gene expression ([1]; 144 hrs): + (detectable between 35 and 40 cycles by RT-PCR)
- Insulin gene expression ([1]; 144 hrs): ++ (detectable at less than 35 cycles by RT-PCR with SE greater than 0.9)
- Pdx-1 gene expression ([1]; 144 hrs): nd (not detectable at >40 cycles by RT-PCR)
- sox17 gene expression ([1]; 144 hrs): +++ (detectable at less than 35 cycles by RT-PCR with SE less than 0.9)
- Gata1 gene expression ([2]; 24 hrs): nd (not detectable at >40 cycles by RT-PCR)
- HNF (HNF-3 beta) gene expression ([2]; 24 hrs): +++ (detectable at less than 35 cycles by RT-PCR with SE less than 0.9)
- Insulin gene expression ([2]; 24 hrs): nd (not detectable at >40 cycles by RT-PCR)
- Pdx-1 gene expression ([2]; 24 hrs): + (detectable between 35 cycles and 40 cycles by RT-PCR)
- sox17 gene expression ([2]; 24 hrs): +++ (detectable at less than 35 cycles by RT-PCR with SE less than 0.9)
- Gata1 gene expression ([2]; 48 hrs): nd (not detectable at >40 cycles by RT-PCR)
- HNF (HNF-3 beta) gene expression ([2]; 48 hrs): +++ (detectable at less than 35 cycles by RT-PCR with SE less than 0.9)
- Insulin gene expression ([2]; 48 hrs): nd (not detectable at >40 cycles by RT-PCR)
- Pdx-1 gene expression ([2]; 48 hrs): nd (not detectable at >40 cycles by RT-PCR)
- sox17 gene expression ([2]; 48 hrs): +++ (detectable at less than 35 cycles by RT-PCR with SE less than 0.9)
- Gata1 gene expression ([2]; 72 hrs): nd (not detectable at >40 cycles by RT-PCR)
- HNF (HNF-3 beta) gene expression ([2]; 72 hrs): + (detectable between 35 cycles and 40 cycles by RT-PCR)
- Insulin gene expression ([2]; 72 hrs): + (detectable between 35 cycles and 40 cycles by RT-PCR)
- Pdx-1 gene expression ([2]; 72 hrs): nd (not detectable at >40 cycles by RT-PCR)
- sox17 gene expression ([2]; 72 hrs): +++ (detectable at less than 35 cycles by RT-PCR with SE less than 0.9)
- Gata1 gene expression ([2]; 96 hrs): nd (not detectable at >40 cycles by RT-PCR)
- HNF (HNF-3 beta) gene expression ([2]; 96 hrs): nd (not detectable at >40 cycles by RT-PCR)
- Insulin gene expression ([2]; 96 hrs): + (detectable between 35 cycles and 40 cycles by RT-PCR)
- Pdx-1 gene expression ([2]; 96 hrs): nd (not detectable at >40 cycles by RT-PCR)
- sox17 gene expression ([2]; 96 hrs): +++ (detectable at less than 35 cycles by RT-PCR with SE less than 0.9)
- Gata1 gene expression ([2]; 120 hrs): nd (not detectable at >40 cycles by RT-PCR)
- HNF (HNF-3 beta) gene expression ([2]; 120 hrs): + (detectable between 35 cycles and 40 cycles by RT-PCR)
- Insulin gene expression ([2]; 120 hrs): + (detectable between 35 cycles and 40 cycles by RT-PCR)
- Pdx-1 gene expression ([2]; 120 hrs): nd (not detectable at >40 cycles by RT-PCR)
- sox17 gene expression ([2]; 120 hrs): +++ (detectable at less than 35 cycles by RT-PCR with SE less than 0.9)
- Gata1 gene expression ([2]; 144 hrs): nd (not detectable at >40 cycles by RT-PCR)
- HNF (HNF-3 beta) gene expression ([2]; 144 hrs): nd (not detectable at >40 cycles by RT-PCR)
- Insulin gene expression ([2]; 144 hrs): + (detectable between 35 cycles and 40 cycles by RT-PCR)
- Pdx-1 gene expression ([2]; 144 hrs): nd (not detectable at >40 cycles by RT-PCR)
- sox17 gene expression ([2]; 144 hrs): +++ (detectable at less than 35 cycles by RT-PCR with SE less than 0.9)
- HNF (HNF-3 beta) gene expression ([3]; 24 hrs): + (detectable between 35 and 40 cycles RT-PCR)
- Insulin gene expression ([3]; 24 hrs): nd (not detectable at >40 cycles by RT-PCR)
- Pdx-1 gene expression ([3]; 24 hrs): +++ (detectable at less than 35 cycles RT-PCR with SE less than 0.9)
- glucagon gene expression ([3]; 24 hrs): +++ (detectable at less than 35 cycles RT-PCR with SE less than 0.9)
- HNF (HNF-3 beta) gene expression ([3]; 48 hrs): nd (not detectable at >40 cycles by RT-PCR)
- Insulin gene expression ([3]; 48 hrs): nd (not detectable at >40 cycles by RT-PCR)
- Pdx-1 gene expression ([3]; 48 hrs): nd (not detectable at >40 cycles by RT-PCR)
- glucagon gene expression ([3]; 48 hrs): + (detectable between 35 and 40 cycles RT-PCR)
- HNF (HNF-3 beta) gene expression ([3]; 72 hrs): nd (not detectable at >40 cycles by RT-PCR)
- Insulin gene expression ([3]; 72 hrs): nd (not detectable at >40 cycles by RT-PCR)
- Pdx-1 gene expression ([3]; 72 hrs): nd (not detectable at >40 cycles by RT-PCR)
- glucagon gene expression ([3]; 72 hrs): nd (not detectable at >40 cycles by RT-PCR)
- HNF (HNF-3 beta) gene expression ([3]; 96 hrs): nd (not detectable at >40 cycles by RT-PCR)
- Insulin gene expression ([3]; 96 hrs): nd (not detectable at >40 cycles by RT-PCR)
- Pdx-1 gene expression ([3]; 96 hrs): nd (not detectable at >40 cycles by RT-PCR)
- glucagon gene expression ([3]; 96 hrs): nd (not detectable at >40 cycles by RT-PCR)
- HNF (HNF-3 beta) gene expression ([3]; 120 hrs): nd (not detectable at >40 cycles by RT-PCR)
- Insulin gene expression ([3]; 120 hrs): nd (not detectable at >40 cycles by RT-PCR)
- Pdx-1 gene expression ([3]; 120 hrs): nd (not detectable at >40 cycles by RT-PCR)
- glucagon gene expression ([3]; 120 hrs): nd (not detectable at >40 cycles by RT-PCR)
- HNF (HNF-3 beta) gene expression ([3]; 144 hrs): nd (not detectable at >40 cycles by RT-PCR)
- Insulin gene expression ([3]; 144 hrs): nd (not detectable at >40 cycles by RT-PCR)
- Pdx-1 gene expression ([3]; 144 hrs): nd (not detectable at >40 cycles by RT-PCR)
- glucagon gene expression ([3]; 144 hrs): nd (not detectable at >40 cycles by RT-PCR)
